Reference: patent US20090053245A1, “Pharmacokinetics and Efficacy of Anti-Angiogenic Drugs and Drugs Treating Diseases of the Blood” (priority 2007, published 2009)
Blank lines part the entries; values can stand above or below the molecule they belong to.

How the values were obtained:
[1] = in vivo; cited from earlier work
[2] = non-transplant patients; cited from earlier work
CYP3a4 = molecular target: T1, CYP3a4 (Homo sapiens, UniProt P08684); experiment: Fluorescence-based CYP3a4 assay (Invitrogen VIVID) with or without FKBP; type: in vitro ADME
T1 construct: purchased Invitrogen (Carlsbad, Calif.) P2856
T1 sequence (P08684 2-503 limits assumed): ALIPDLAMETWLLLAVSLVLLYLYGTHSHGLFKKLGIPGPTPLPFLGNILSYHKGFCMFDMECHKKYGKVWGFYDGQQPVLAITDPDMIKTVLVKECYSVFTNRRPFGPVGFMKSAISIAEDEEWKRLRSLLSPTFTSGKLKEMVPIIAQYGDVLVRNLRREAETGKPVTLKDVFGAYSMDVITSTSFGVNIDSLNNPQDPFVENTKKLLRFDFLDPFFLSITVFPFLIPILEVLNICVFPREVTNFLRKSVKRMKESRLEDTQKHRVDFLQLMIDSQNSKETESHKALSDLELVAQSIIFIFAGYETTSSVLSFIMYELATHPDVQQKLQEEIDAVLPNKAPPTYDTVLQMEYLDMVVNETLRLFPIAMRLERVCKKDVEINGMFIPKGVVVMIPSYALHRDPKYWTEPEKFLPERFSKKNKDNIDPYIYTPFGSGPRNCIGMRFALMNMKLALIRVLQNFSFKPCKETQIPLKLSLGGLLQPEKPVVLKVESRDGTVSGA

[3] = molecular target: T2, vitamin K epoxide reductase (Mus musculus, UniProt Q9CRC0); experiment: Time course of anticoagulant effect (Helena Thromboplastic Reagent MI clotting test); type: in vivo; settings: mice, 1.5 mg/kg by gavage in 0.5% methylcellulose
T2 construct: clotting time doubles after only about 8 hours for warfarin-SLF dosed mice; from tissue; host or cells: live mice dosed by gavage; clotting time measured on their blood
T2 sequence (Q9CRC0 1-161): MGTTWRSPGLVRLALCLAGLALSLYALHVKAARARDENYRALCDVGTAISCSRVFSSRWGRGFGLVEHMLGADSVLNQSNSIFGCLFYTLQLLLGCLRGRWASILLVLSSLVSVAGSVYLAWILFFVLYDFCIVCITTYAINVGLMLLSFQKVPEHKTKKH
Protocol: Five mice per arm (fifteen animals total) were used for the test. […] The dose was 1.5 mg/kg, administered in 0.5% methylcellulose by gavage. The Helena Thromboplastic Reagent MI test (Helena Laboratories, Beaumont, Tex.) was employed to determine the duration of clotting.

SMILES: C=CC[C@@H]1/C=C(\C)C[C@H](C)C[C@H](OC)[C@H]2O[C@@](O)(C(=O)C(=O)N3CCCC[C@H]3C(=O)O[C@H](/C(C)=C/[C@@H]3CC[C@@H](O)[C@H](OC)C3)[C@H](C)[C@@H](O)CC1=O)[C@H](C)C[C@@H]2OC [FK506]
distribution in the blood [1]: 72-98% | half-life [2]: 21 h

protection from degradation by CYP3a4 (CYP3a4; in the presence of human FKBP (recombinant bacterially-expressed protein)): unable to protect | substrate for the enzyme CYP3a4 (CYP3a4; no FKBP added): good substrates
SMILES: COc1cc(/C=C/C(=O)CC(=O)/C=C/c2ccc(O)c(OC)c2)ccc1O [curcumin]

time after which clotting time doubles [3]: 18 h
SMILES: CC(=O)CC(c1ccccc1)c1c(O)c2ccccc2oc1=O (centres unmarked) [warfarin]
